Where two headings read alike, the source gives them in different places.
Columns and labels:
[1] = test system: HEK293T (human embryonic kidney cell); test: cells
From the text: (§1) HMLER (human mammary endothelial cancer cells), HMLER-shEcad (human mammary endothelial cancer stem cells), and MCF-10A (healthy human mammary endothelial) cells were maintained in Mammary Epithelial Cell Growth Medium (MEGM) with supplements and growth factors: bovine pituitary extract (BPE), hydrocortisone, human epidermal growth factor (hEGF), insulin, and gentamicin/amphotericin-B. HEK293T (human embryonic kidney cell), and U2OS (Homo sapiens bone osteosarcoma) cells were maintained in Dulbecco's Modified Eagle's Medium (DMEM) with a final concentration of 10% fetal bovine serum. The cells were grown in T75 flask at 310 K in a humidified atmosphere containing 5% CO2.
(§2) The colourimetric MTT (3-(4,5-dimethylthiazol-2-yl)-2,5-diphenyltetrazolium bromide) assay was used to determine the toxicity of the anticancer peptides and conventional anticancer drugs. 5×10^3 cells were seeded in each well of a 96-well microplate. The cells were incubated overnight. Elevated concentrations of the compounds (0, 0.1, 0.2, 0.4, 0.8, 1.6, 3.1, 6.3, 12.5, 25, 50 and 100 μM) were added and incubated for 72 hr with a total volume 200 μL. The stock solutions of the compounds were prepared as 5 mM solutions in DMSO and diluted using media or in pure water. The final concentration of DMSO in each well was either 0.5% or 0% and this amount was present in the untreated control. After 72 hr, 20 μL of a 4 mg/mL solution of MTT in PBS was added to each well, and the plate was incubated for an additional 4 hr. The MEGM/MTT mixture was aspirated and 100 μL of DMSO was added to dissolve the resulting purple formazan crystals. The absorbance of the solutions in each well was read at 550 nm wavelength. Absorbance values were normalized to either DMSO-containing or non DMSO-containing control wells and plotted as concentration of test compound versus % cell viability. IC50 values were interpolated from the resulting dose dependent curves.
(§3) The peptides were screened against several different human cell lines and their cytotoxicity were determined. Cell lines utilised include MCF-10A (human breast epithelial cell), HMLER (human breast cancer bulk cell), HMLER-shEcad (human breast cancer stem cell), HEK293T (human embryonic kidney cell), and U2OS (human bone osteosarcoma).

[2] = test system: HMLER (human breast cancer bulk cell); test: cells
From the text: as §1, §2, §3

[3] = test system: HMLER-shEcad (human breast cancer stem cell); test: cells
From the text: as §1, §2, §3

[4] = test system: U2OS (human bone osteosarcoma)
From the text: as §1, §2, §3

[5] = Tryptophan fluorescent binding assay, POPC vesicles; conditions: 50 μM peptide, PBS pH 7.4, lipid per peptide
Procedure: (§4) In brief, 50 μM peptides were fixed and incubated with titrated POPC vesicles (black) or 3POPC/1POPG vesicles (grey) at concentrations of 0, 12.5, 25, 50, 100, 250, 500, 1000, 2500, and 5000 μM in phosphate buffered saline (1×, pH 7.4). The lipid concentration that causes 50% peptide binding was determined using a tryptophan fluorescent binding assay and the values are shown as lipid per peptide.
(§5) The lipids 1-palmitoyl-2-oleoyl-sn-glycero-3-phosphocholine (POPC), 1-palmitoyl-2-oleoyl-snglycero-3-phospho-(1′-rac-glycerol) (POPG) were purchased from Avanti Polar Lipids and dissolved in chloroform. Large unilamellar vesicles (LUVs) were produced by extrusion through 100 nm pore filter using an extruder and filters purchased from Avanti Polar Lipids.
(§6) Peptides (50 μM) and POPC/POPG LUVs (600 μM) were prepared in 10 mM phosphate buffer (pH 7.0). The solutions were incubated and measured after 60 minutes. Excitation was fixed at 280 nm (slit 9 nm) and emission was collected from 300 to 450 nm (slit 9 nm). The spectra were recorded using a Synergy H1 Hybrid Multi-Mode Reader (FIG. 3A) and Cytation™ 5 Cell Imaging Multi-Mode Reader (FIG. 2) from BioTek and were averaged over 3 scans.
(§7) Table 3 illustrates the lipid concentration-induced 50% peptide binding onto a liposome. 50 μM peptide was fixed and incubated with titrated lipid (POPC vesicles or 3POPC/1POPG vesicles) at concentrations of 0, 12.5, 25, 50, 100, 250, 500, 1000, 2500, and 5000 μM in phosphate buffered saline (1×, pH 7.4). The lipid concentration that causes 50% peptide binding was determined using tryptophan fluorescent binding assay and the values are shown as lipid per peptide. †N-terminus is free, C-terminus: —W—NH2.

[6] = Tryptophan fluorescent binding assay, 3POPC/1POPG vesicles; conditions: 50 μM peptide, PBS pH 7.4, lipid per peptide
Procedure: as §4, §5, §6, §7

[7] = ANTS/DPX liposome leakage assay, POPC vesicles; format: biochemical; conditions: 0.5 mM vesicles; for Peptide Concentration-induced 50% ANTS/DPX leakage at pH 4.8, POPC Vesicle: pH 4.8, lipid per peptide; for Peptide Concentration-induced 50% ANTS/DPX leakage at pH 7.4, POPC Vesicle: pH 7.4, lipid per peptide
Procedure: (§8) In brief, 0.5 mM POPC vesicles (grey) or POPC:POPG vesicles (ratio 3:1, black) were incubated with peptide concentrations of 0, 0.02, 0.04, 0.08, 0.16, 0.32, 0.64, 1.25, 2.5, 5, 10, and 20 μM in each A) hydrochloric acid-adjusted phosphate buffered saline (1×, pH 4.8) and B) phosphate buffered saline (1×, pH 7.4).
as §5
(§9) 5 mM ANTS (8-aminonaphthalene-1,3,6-trisulfonic acid, disodium salt) and 12.5 mM DPX (p-xylene-bis-pyridinium bromide) were entrapped in 0.1 μm diameter extruded vesicles with lipids. Gel filtration chromatography using a Sephadex G-100 (GE Healthcare Life Sciences Inc) was used to remove external free ANTS/DPX from LUVs with entrapped contents. LUVs were diluted to 0.5 mM and used to measure the leakage activity by addition of aliquots of peptides. Leakage was measured after 3 h incubation. 10% Triton was used as the positive control to measure the maximum leakage of the vesicle. Fluorescence emission spectra were recorded using excitation and emission wavelength of 350 nm and 510 nm for ANTS/DPX using a BioTek Synergy H1 Hybrid Multi-Mode Reader.
(§10) Table 4 illustrates peptide concentration-induced 50% ANTS/DPX liposome leakage. 0.5 mM POPC and 3POPC/1POPG vesicles were fixed and incubated with titrated peptide concentration ([…]) each in phosphate buffered saline (1×, pH 7.4) and hydrochloric acid-adjusted phosphate buffered saline (1×, pH 4.8). The values are shown as lipid per peptide. †N-terminus is free, C-terminus: —W—NH2.

[8] = ANTS/DPX liposome leakage assay, 3POPC/1POPG vesicles; format: biochemical; conditions: 0.5 mM vesicles; for Peptide Concentration-induced 50% ANTS/DPX leakage at pH 4.8, 3POPC/1POPG Vesicle: pH 4.8, lipid per peptide; for Peptide Concentration-induced 50% ANTS/DPX leakage at pH 7.4, 3POPC/1POPG Vesicle: pH 7.4, lipid per peptide
Procedure: as §8, §5, §9, §10

Row | Structure (SMILES) | IC50 ([1]; 72 h) [µM] | IC50 ([2]; 72 h) [µM] | IC50 ([3]; 72 h) [µM] | IC50 ([4]; 72 h) [µM] | IC50 ([1]; read-out: IC50 HEK293T, MTT, 72 hr) [µM] | IC50 ([2]; read-out: IC50 HMLER, MTT, 72 hr) [µM] | IC50 ([3]; read-out: IC50 HMLER-shEcad, MTT, 72 hr) [µM] | IC50 ([4]; read-out: IC50 U20S, MTT, 72 hr) [µM] | Lipid Concentration-induced 50% Peptide Binding, POPC Vesicle [5] [L/P] | Lipid Concentration-induced 50% Peptide Binding, 3POPC/1POPG Vesicle [6] [L/P] | Peptide Concentration-induced 50% ANTS/DPX leakage at pH 4.8, POPC Vesicle [7] [L/P] | Peptide Concentration-induced 50% ANTS/DPX leakage at pH 7.4, POPC Vesicle [7] [L/P] | Peptide Concentration-induced 50% ANTS/DPX leakage at pH 4.8, 3POPC/1POPG Vesicle [8] [L/P] | Peptide Concentration-induced 50% ANTS/DPX leakage at pH 7.4, 3POPC/1POPG Vesicle [8] [L/P]
1 | CC(C)C[C@@H](NC(=O)CN)C(=O)N[C@H](CC(C)C)C(=O)N[C@H](CC(=O)O)C(=O)N[C@H](CC(C)C)C(=O)N[C@H](CC(C)C)C(=O)N[C@H](CCC(=O)O)C(=O)N[C@H](CC(C)C)C(=O)N[C@H](CC(C)C)C(=O)N[C@H](CC(C)C)C(=O)N[C@H](CCCCN)C(=O)N[C@H](C)C(=O)N[C@H](C)C(=O)NCC(=O)N[C@H](Cc1c[nH]c2ccccc12)C(N)=O [D-form DEK] | 3.28 ± 0.21 | 0.44 ± 0.1 | 0.36 | 5.84 ± 0.04 |  |  |  |  |  |  |  |  |  | 
2 | CC(C)C[C@@H](NC(=O)CN)C(=O)N[C@H](CC(C)C)C(=O)N[C@H](CC(=O)O)C(=O)N[C@H](CC(C)C)C(=O)N[C@H](CC(C)C)C(=O)N[C@H](Cc1c[nH]cn1)C(=O)N[C@H](CC(C)C)C(=O)N[C@H](CC(C)C)C(=O)N[C@H](CC(C)C)C(=O)N[C@H](CCCCN)C(=O)N[C@H](C)C(=O)N[C@H](C)C(=O)NCC(=O)N[C@H](Cc1c[nH]c2ccccc12)C(N)=O [D-form DHK] |  |  |  |  | 1.55 ± 0.37 | 0.32 ± 0.07 | 0.23 ± 0.04 | 1.24 ± 0.03 |  |  |  |  |  | 
3 | CC(C)C[C@H](NC(=O)CN)C(=O)N[C@@H](CC(C)C)C(=O)N[C@@H](CC(=O)O)C(=O)N[C@@H](CC(C)C)C(=O)N[C@@H](CC(C)C)C(=O)N[C@@H](CCC(=O)O)C(=O)N[C@@H](CC(C)C)C(=O)N[C@@H](CC(C)C)C(=O)N[C@@H](CC(C)C)C(=O)N[C@@H](CCC(=O)O)C(=O)N[C@@H](C)C(=O)N[C@@H](C)C(=O)NCC(=O)N[C@@H](Cc1c[nH]c2ccccc12)C(N)=O [DEE] | 9.91 ± 0.44 | 5.55 ± 0.35 | 6.05 ± 2.76 | 61 ± 1.41 |  |  |  |  | 0.63 | 0.38 | 110 | 644 | 164 | 597
4 | CC(C)C[C@H](NC(=O)CN)C(=O)N[C@@H](CC(C)C)C(=O)N[C@@H](CC(=O)O)C(=O)N[C@@H](CC(C)C)C(=O)N[C@@H](CC(C)C)C(=O)N[C@@H](CCC(=O)O)C(=O)N[C@@H](CC(C)C)C(=O)N[C@@H](CC(C)C)C(=O)N[C@@H](CC(C)C)C(=O)N[C@@H](Cc1c[nH]cn1)C(=O)N[C@@H](C)C(=O)N[C@@H](C)C(=O)NCC(=O)N[C@@H](Cc1c[nH]c2ccccc12)C(N)=O [DEH] | 10.5 ± 4.67 | 5.35 ± 1.91 | 3.6 ± 0.42 | 36.5 ± 3.92 |  |  |  |  | 0.75 | 1.50 | 63 | 620 | 193 | 548
5 | CC(C)C[C@H](NC(=O)CN)C(=O)N[C@@H](CC(C)C)C(=O)N[C@@H](CC(=O)O)C(=O)N[C@@H](CC(C)C)C(=O)N[C@@H](CC(C)C)C(=O)N[C@@H](Cc1c[nH]cn1)C(=O)N[C@@H](CC(C)C)C(=O)N[C@@H](CC(C)C)C(=O)N[C@@H](CC(C)C)C(=O)N[C@@H](CCC(=O)O)C(=O)N[C@@H](C)C(=O)N[C@@H](C)C(=O)NCC(=O)N[C@@H](Cc1c[nH]c2ccccc12)C(N)=O [DHE] | 11.1 ± 1.91 | 3.75 ± 0.92 | 2.8 ± 0.14 | 17.2 ± 1.06 |  |  |  |  | 1.00 | 0.72 | 58 | 566 | 469 | 581
6 | CC(C)C[C@H](NC(=O)CN)C(=O)N[C@@H](CC(C)C)C(=O)N[C@@H](Cc1c[nH]cn1)C(=O)N[C@@H](CC(C)C)C(=O)N[C@@H](CC(C)C)C(=O)N[C@@H](CCC(=O)O)C(=O)N[C@@H](CC(C)C)C(=O)N[C@@H](CC(C)C)C(=O)N[C@@H](CC(C)C)C(=O)N[C@@H](CCCCN)C(=O)N[C@@H](C)C(=O)N[C@@H](C)C(=O)NCC(=O)N[C@@H](Cc1c[nH]c2ccccc12)C(N)=O [HEK] | 6.95 ± 1.63 | 2.35 ± 1.06 | 3.45 ± 2.19 |  |  |  |  |  | 0.44 | 0.46 | 97 | 755 | 41. | 386

— patent publication US20250326794A1, “ANTI-CANCER LEUCINE-RICH PEPTIDES AND USES THEREOF” (KING'S COLLEGE LONDON, priority 2019, published 2025)
